pEC50, pIC50: −log10 of the molar value. Where two headings read alike, the source gives them in different places.
Tests used:
SiHa = assay: Cell proliferation assay (MTS or SRB), SiHa; type: cell-based, human; conditions: Homo sapiens, 72 h, Cervical, 3 days, read-out: IC50 (cell growth inhibition)
Method: (§1) In vitro cell proliferation assays were performed using a 96-well plate based MTSassay (CellTiter 96° AqueousOne Solution Cell Proliferation Assay, Promega) or SRB (Sulforhodamine-B) assay (1-3). Briefly, cells were plated in 100 μl medium on day 0 in 96-well microtiter plates (Falcon #3072). On day 1, 10 μl of serial dilutions of each compound (Nine 1:2 dilutions with a starting concentration of 100 μM; in some cases, a starting concentration of 400 μM (CMX001 or Cidofovir) or 1 μM (some standard agents)) were added in triplicates to the plates. For standard agents using DMSO as solvent, serial dilutions of DMSO with a starting concentration of 0.5% were also included as a vehicle control.
(§2) After incubation for 3 days at 37° C. in a humidified incubator, viable cells were measured either by MTS or SRB assay. For MTS assay, 20 μl of a 20:1 mixture of (3-(4,5-dimethylthiazol-2-yl)-5-(3-carboxymethoxyphenyl)-2-(4-sulfophenyl)-2H-tetrazolium, inner salt (MTS, 2 mg/ml) and an electron coupling reagent, phenazine methosulfate (PMS, 0.92 mg/ml in DPBS), was added to each well and incubated for 3 hours at 37° C. Absorbance was measured using a BioTek Synergy™ HT Multiple Detection microplate reader at 490 nm. For SRB assay, cells were fixed in situ with 50 μL of cold trichloroacetic acid (TCA, final concentration at 10% w/v) for 60 minutes. Cells were then washed 5 times with H2O and air-dried.
(§3) Next, cells were stained with 20 μL of 0.2% SRB in 1% acetic acid and incubated at room temperature for 30 minutes and unbound SRB was removed by washing 5 times with 1% acetic acid and air-dried. Finally, bound SRB stain was solubilized in 50 μL of 50 μM Tris buffer before taking an optical density measurement at 570 nm using the BioTek microplate reader. The growth inhibition data were expressed as the percentage of cell survival calculated from the background corrected absorbance. The surviving fraction of cells was determined by dividing the mean absorbance values of the test agent-treated samples by the mean absorbance values of untreated control. […]

SCaBER = assay: Cell proliferation assay (MTS or SRB), SCaBER; type: cell-based; conditions: Homo sapiens, 72 h, Bladder, 3 days, read-out: IC50 (cell growth inhibition)
Method: as §1, §2, §3

Caki-2 = assay: Cell proliferation assay (MTS or SRB), Caki-2; type: cell-based; conditions: Homo sapiens, 72 h; Caki-2, Kidney, 3 days; read-out: IC50 (cell growth inhibition)
Method: as §1, §2, §3

SW 780 = assay: Cell proliferation assay (MTS or SRB), SW 780; type: cell-based; conditions: Homo sapiens, SW780, 72 h; SW 780, Bladder, 3 days; read-out: IC50 (cell growth inhibition)
Method: as §1, §2, §3

BK virus = assay: Antiviral activity against BK virus in RPTEC cells (viral DNA by qPCR, 5 days); type: cell-based; conditions: for pEC50: Betapolyomavirus hominis, RPTEC, RPTEC cells
Method: In order to test the activity of CMX001 to inhibit replication of BK virus, stocks of BK virus were prepared in HFF cells and dilutions of the virus stocks were used to infect primary human renal tubular epithelial cells (RPTECs). CMX001 were then added to the wells containing the infected cells and the plates were incubated for 5 days. Total DNA was prepared from the plates and viral DNA was quantified by qPCR.

MIA PaCa-2 = assay: Cell proliferation assay (MTS or SRB), MIA PaCa-2; type: cell-based; conditions: Homo sapiens, 72 h; MIA PaCa-2, Pancreatic, 3 days; read-out: IC50 (cell growth inhibition)
Method: as §1, §2, §3

MDA-231 = assay: Cell proliferation assay (MTS or SRB), MDA-231; type: cell-based; conditions: Homo sapiens, MDA-MB-231, 72 h; MDA-231, Breast, 3 days; read-out: IC50 (cell growth inhibition)
Method: as §1, §2, §3

SK-OV-3 = assay: Cell proliferation assay (MTS or SRB), SK-OV-3; type: cell-based, human; conditions: Homo sapiens, 72 h; SK-OV-3, Ovarian, 3 days; read-out: IC50 (cell growth inhibition)
Method: as §1, §2, §3

OVCAR-3 = assay: Cell proliferation assay (MTS or SRB), OVCAR-3; type: cell-based, human; conditions: Homo sapiens, 72 h; OVCAR-3, Ovarian, 3 days; read-out: IC50 (cell growth inhibition)
Method: as §1, §2, §3

Het-1A = assay: Cell proliferation assay (MTS or SRB), Het-1A; type: cell-based; conditions: Homo sapiens, 72 h, Esophagus (Normal), SV40 large T immortalized, 3 days, read-out: IC50 (cell growth inhibition)
Method: as §1
(§4) After incubation for 3 days at 37° C. in a humidified incubator, viable cells were measured either by MTS or SRB assay. […]
as §3, with “absorbance.” for “absorbance. The surviving fraction of cells was determined by dividing the mean absorbance values of the test agent-treated samples by the mean absorbance values of untreated control.”

PC-3 = assay: Cell proliferation assay (MTS or SRB), PC-3; type: cell-based; conditions: Homo sapiens, 72 h; PC-3, Prostate, 3 days; read-out: IC50 (cell growth inhibition)
Method: as §1, §2, §3

THLE-3 = assay: Cell proliferation assay (MTS or SRB), THLE-3; type: cell-based; conditions: Homo sapiens, THLE3, 72 h; THLE-3, Liver (Normal), SV40 large T immortalized, 3 days; read-out: IC50 (cell growth inhibition)
Method: as §1, §4
as §3, with “absorbance.” for “absorbance. The surviving fraction of cells was determined by dividing the mean absorbance values of the test agent-treated samples by the mean absorbance values of untreated control.”

SK-HEP-1 = assay: Cell proliferation assay (MTS or SRB), SK-HEP-1; type: cell-based; conditions: Homo sapiens, SK-HEP1, 72 h; SK-HEP-1, Liver, 3 days; read-out: IC50 (cell growth inhibition)
Method: as §1, §2, §3

DU 145 = assay: Cell proliferation assay (MTS or SRB), DU 145; type: cell-based; conditions: Homo sapiens, 72 h; DU 145, Prostate, 3 days; read-out: IC50 (cell growth inhibition)
Method: as §1, §2, §3

HCT-116 = assay: Cell proliferation assay (MTS or SRB), HCT-116; type: cell-based, human; conditions: Homo sapiens, 72 h; HCT-116, Colon, 3 days; read-out: IC50 (cell growth inhibition)
Method: as §1, §2, §3

A549 = assay: Cell proliferation assay (MTS or SRB), A549; type: cell-based; conditions: Homo sapiens, 72 h; A549, Lung, 3 days; read-out: IC50 (cell growth inhibition)
Method: as §1, §2, §3

HT-29 = assay: Cell proliferation assay (MTS or SRB), HT-29; type: cell-based, human; conditions: Homo sapiens, 72 h; HT-29, Colon, 3 days; read-out: IC50 (cell growth inhibition)
Method: as §1, §2, §3

SK-MEL-2 = assay: Cell proliferation assay (MTS or SRB), SK-MEL-2; type: cell-based; conditions: Homo sapiens, 72 h; SK-MEL-2, Skin (melanoma), 3 days; read-out: IC50 (cell growth inhibition)
Method: as §1, §2
Next, cells were stained with 20 μL of 0.2% SRB in 1% acetic acid and incubated at room temperature for 30 minutes and unbound SRB was removed by washing 5 times with 1% acetic acid and air-dried. Finally, bound SRB stain was solubilized in 50 μL of 50 μM Tris buffer before taking an optical density measurement at 570 nm using the BioTek microplate reader. The growth inhibition data were expressed as the percentage of cell survival calculated from the background corrected absorbance. The surviving fraction of cells was determined by dividing the mean absorbance values of the test agent-treated samples by the mean absorbance values of untreated control.
Raw data were acquired using a BioTek Synergy™ HT Multiple Detection microplate reader and imported into Microsoft Excel for analysis. The average signal of each treatment was calculated from the triplicates after subtracting the blank signals. The percentage survival values were calculated using the following formula: % survival=(average signal of the drug treatment/average signal of untreated controls)×100. The data were finally imported into the Prism 4 software (GraphPad Software, San Diego, Calif.) to generate the dose-activity curves using non-linear regression curve fit and to calculate the IC50 values.

SMILES | pIC50 (SiHa) | pIC50 (SCaBER) | pIC50 (Caki-2) | pIC50 (SW 780) | pIC50 (MIA PaCa-2) | pIC50 (MDA-231) | pIC50 (SK-OV-3) | pIC50 (OVCAR-3) | pIC50 (Het-1A) | pIC50 (PC-3) | pIC50 (THLE-3) | pIC50 (SK-HEP-1) | pIC50 (DU 145) | pIC50 (HCT-116) | pIC50 (A549) | pIC50 (HT-29) | pIC50 (SK-MEL-2) | other results
CCCCCCCCCCCCCCCCOCCCOP(=O)(O)CO[C@H](CO)Cn1ccc(N)nc1=O [CMX001] | 4.37 | 4.09 | 4.22 | 5.00 | 4.84 | 4.95 | 4.02 | 4.13 | 4.69 | 5.18 | 5.15 | 5.13 | 4.72 | 4.68 | < 4.00 | 4.31 | 4.15 | pEC50 (BK virus; virus dilution 1:10): 7.80; pEC50 (BK virus; virus dilution 1:50): 8.46; pEC50 (BK virus; virus dilution 1:100): 8.43; activity against BK virus replication (BK virus; RPTECs, in words): good activity
Nc1ccn(C[C@@H](CO)OCP(=O)(O)O)c(=O)n1 [cidofovir] | 4.00 | < 4.00 | < 4.00 | < 4.00 | < 4.00 | < 4.00 | < 4.00 | < 4.00 | < 4.00 | < 4.00 | < 4.00 | < 4.00 | < 4.00 | < 4.00 | < 4.00 | < 4.00 | < 4.00 | pEC50 (BK virus; virus dilution 1:10, read-out: EC50): 5.70; pEC50 (BK virus; virus dilution 1:50, read-out: EC50): 6.19; pEC50 (BK virus; virus dilution 1:100, read-out: EC50): 6.36
